From patent US10273233B2, “Inhibitors of influenza viruses replication” (Vertex Pharmaceuticals Incorporated, priority 2015, dated 2019)

Key:
A/Puerto Rico/8/34 = assay: 3-day CP assay in MDCK cells; assay type: cell-based; details: Influenza A virus
A/Mexico/4108/2009 = assay: 3-day CP assay in MDCK cells; assay type: cell-based; details: Influenza A virus
A/Aichi/2/68 = assay: 3-day CP assay in MDCK cells; assay type: cell-based; details: Influenza A virus
A/Hong Kong/8/68 = assay: 3-day CP assay in MDCK cells; assay type: cell-based; details: Influenza A virus
A/Georgia/17/2006 = assay: 3-day CP assay in MDCK cells; assay type: cell-based; details: Influenza A virus
A/Cambodia0371/2007 = assay: 3-day CP assay in MDCK cells; assay type: cell-based; details: Influenza A virus
A/Uruguay/716/2007 = assay: 3-day CP assay in MDCK cells; assay type: cell-based; details: Influenza A virus
A/Henan/Jinshui/147/2007 = assay: 3-day CP assay in MDCK cells; assay type: cell-based; details: Influenza A virus
B/Memphis/20/1996--070 = assay: 3-day CP assay in MDCK cells; assay type: cell-based; details: Influenza B virus
A/Mal/302/54 = assay: 3-day CP assay in MDCK cells; assay type: cell-based; details: Influenza A virus
A/NWS/33 = assay: 3-day CP assay in MDCK cells; assay type: cell-based, influenza A; details: Influenza A virus, MDCK
A/WS/33 = assay: 3-day CP assay in MDCK cells; assay type: cell-based; details: Influenza A virus
A/Santiago/7981/2006 = assay: 3-day CP assay in MDCK cells; assay type: cell-based; details: Influenza A virus
A/Victoria/3/75 = assay: 3-day CP assay in MDCK cells; assay type: cell-based; details: Influenza A virus
B/Russia/69 = assay: 3-day CP assay in MDCK cells; assay type: cell-based; details: Influenza B virus
A/Denver/1/57 = assay: 3-day CP assay in MDCK cells; assay type: cell-based; details: Influenza A virus
[1] = tested on: A/California/07/2009 NYMC, X-179A; assay: 3-day CP assay in MDCK cells; assay type: cell-based; details: Influenza A virus
A/FM/1/47 = assay: 3-day CP assay in MDCK cells; assay type: cell-based; details: Influenza A virus
A/Port Chalmers/1/73 = assay: 3-day CP assay in MDCK cells; assay type: cell-based; details: Influenza A virus
A/Virginia/01/2006 = assay: 3-day CP assay in MDCK cells; assay type: cell-based; details: Influenza A virus
A/Weiss/43 = assay: 3-day CP assay in MDCK cells; assay type: cell-based; details: Influenza A virus
A/New York/18/2009 = assay: 3-day CP assay in MDCK cells; assay type: cell-based; details: Influenza A virus
A/Virginia/ATCC3/2009 = assay: 3-day CP assay in MDCK cells; assay type: cell-based; details: Influenza A virus
A/Georgia/20/2006 = assay: 3-day CP assay in MDCK cells; assay type: cell-based, influenza A; details: Influenza A virus, MDCK
A/St. Petersburg8/2006 = assay: 3-day CP assay in MDCK cells; assay type: cell-based; details: Influenza A virus
A/Missouri/3/2006 = assay: 3-day CP assay in MDCK cells; assay type: cell-based; details: Influenza A virus
A/Texas/48/2009 = assay: 3-day CP assay in MDCK cells; assay type: cell-based; details: Influenza A virus
A/Wisconsin/67/2005 = assay: 3-day CP assay in MDCK cells; assay type: cell-based; details: Influenza A virus
A/Equine/Miami/63 = assay: microbe, parasite or virus in culture; assay type: cell-based; details: Influenza A virus, MDCK
A/Swine/1976/31 = assay: microbe, parasite or virus in culture; assay type: cell-based; details: Influenza A virus, MDCK, in Sus scrofa
A/California/07/2009 = assay: 3-day CP assay in MDCK cells; assay type: cell-based; details: Influenza A virus, MDCK; A/California/07/2009
A/South Dakota/6/2007 = assay: 3-day CP assay in MDCK cells; assay type: cell-based; details: Influenza A virus
A/Virginia/ATCC2/2009 = assay: 3-day CP assay in MDCK cells; assay type: cell-based; details: Influenza A virus
A/New Jersey/8/76 = assay: microbe, parasite or virus in culture; assay type: cell-based; details: Influenza A virus, MDCK
A/Nebraska/1/2006 = assay: 3-day CP assay in MDCK cells; assay type: cell-based; details: Influenza A virus
A/Hawaii/2/2006 = assay: 3-day CP assay in MDCK cells; assay type: cell-based; details: Influenza A virus
A/Swine/Iowa/15/30 = assay: microbe, parasite or virus in culture; assay type: cell-based, influenza A; details: Influenza A virus, MDCK, in Sus scrofa
A/Fukushima/141/2006 = assay: 3-day CP assay in MDCK cells; assay type: cell-based; details: Influenza A virus
A/Chelyabinsk/1/200 = assay: 3-day CP assay in MDCK cells; assay type: cell-based; details: Influenza A virus
B/Lee/40 = assay: 3-day CP assay in MDCK cells; assay type: cell-based; details: Influenza B virus
A/Texas/12/2007 = assay: 3-day CP assay in MDCK cells; assay type: cell-based; details: Influenza A virus

NC12CC3CC(CC(C3)C1)C2 [Amantadine, amantadine]
EC50 (A/Puerto Rico/8/34): > 10 µM
EC50 (A/Mexico/4108/2009): > 10 µM
EC50 (A/Aichi/2/68): 6.6 µM
EC50 (A/Hong Kong/8/68): 3.7 µM
EC50 (A/Georgia/17/2006): 0.25 µM
EC50 (A/Cambodia0371/2007): > 10 µM
EC50 (A/Uruguay/716/2007): > 10 µM
EC50 (A/Henan/Jinshui/147/2007): > 10 µM
EC50 (B/Memphis/20/1996--070): > 10 µM
EC50 (A/Mal/302/54): 2.1 µM
EC50 (A/NWS/33): > 10 µM
EC50 (A/WS/33): > 10 µM
EC50 (A/Santiago/7981/2006): > 10 µM
EC50 (A/Victoria/3/75): 8.6 µM
EC50 (B/Russia/69): > 10 µM
EC50 (A/Denver/1/57): 0.31 µM
EC50 [1]: > 10 µM
EC50 (A/FM/1/47): 0.66 µM
EC50 (A/Port Chalmers/1/73): > 10 µM
EC50 (A/Virginia/01/2006): > 10 µM
EC50 (A/Weiss/43): > 10 µM
EC50 (A/New York/18/2009): > 10 µM
EC50 (A/Virginia/ATCC3/2009): > 10 µM
EC50 (A/Georgia/20/2006): > 10 µM
EC50 (A/St. Petersburg8/2006): > 10 µM
EC50 (A/Missouri/3/2006): 6 µM
EC50 (A/Texas/48/2009): > 10 µM
EC50 (A/Wisconsin/67/2005): > 10 µM
EC50 (A/Equine/Miami/63): 1.75 µM
EC50 (A/Swine/1976/31): 0.078 µM
EC50 (A/California/07/2009): > 10 µM
EC50 (A/South Dakota/6/2007): 0.14 µM
EC50 (A/Virginia/ATCC2/2009): > 10 µM
EC50 (A/New Jersey/8/76): 0.82 µM
EC50 (A/Nebraska/1/2006): > 10 µM
EC50 (A/Hawaii/2/2006): 9.2 µM
EC50 (A/Swine/Iowa/15/30): 0.22 µM
EC50 (A/Fukushima/141/2006): 0.46 µM
EC50 (A/Chelyabinsk/1/200): > 10 µM
EC50 (B/Lee/40): > 10 µM
EC50 (A/Texas/12/2007): > 10 µM
